Earlier results in patent US20120061267A1, “MediTowel Anti-Fungal Wipe” (priority 2010, published 2012).
Counter-ions that a name gives are not always drawn.

Legend:
squalene epoxidase = conditions: in the cells of fungi
[1] = test system: Trichophyton mentagrophytes; conditions: at a low concentration

## CN(C/C=C/C#CC(C)(C)C)Cc1cccc2ccccc12 [Terbinafine hydrochloride]
Squalene epoxidase
  inhibition of squalene epoxidase: selectively inhibits
[1]
  fungicidal effect on sterilizing germinated conidium: fungicidal effect
